Data taken from US6737383B1, “Herbicidal oxadiazolidines” (priority 1999, dated 2004).

Experiments:
purple nutsedge = assay: Test B pre/postemergence purple nutsedge; type: in vivo, Cyperus rotundus
How it was run: (§1)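 Response is a visual 0-to-10 score relative to untreated plants, where 0 means no effect and 10 means complete control, taken twelve to sixteen days after application. Treatments went onto soil at planting and onto foliage of 1- to 4-leaf plants, using a surfactant-containing non-phytotoxic solvent.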

rice = assay: Test B flood test rice; type: in vivo, Oryza sativa
How it was run: (§2)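 Each value is a visual injury score relative to controls, with 10 meaning complete control and 0 no effect. Evaluation took place twelve to sixteen days after the 2-leaf-stage plants were treated and kept in the greenhouse.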

wild oat = assay: Test B pre/postemergence wild oat; type: in vivo, Avena fatua
How it was run: as §1

cocklebur = assay: Test B pre/postemergence cocklebur; type: in vivo, Xanthium strumarium
How it was run: as §1

morningglory = assay: Test B pre/postemergence morningglory; type: in vivo, Ipomoea hederacea
How it was run: as §1

surinam grass = assay: Test B pre/postemergence surinam grass; type: in vivo, Brachiaria decumbens
How it was run: as §1

crabgrass = assay: Test B pre/postemergence crabgrass; type: in vivo, Digitaria sanguinalis
How it was run: as §1

bamyardgrass = assay: Test B flood test barnyardgrass; type: in vivo, Echinochloa crus-galli
How it was run: as §2

rape = assay: Test B pre/postemergence rape; type: in vivo, Brassica napus
How it was run: as §1

corn = assay: Test B pre/postemergence corn; type: in vivo, Zea mays
How it was run: as §1

bedstraw = assay: Test B pre/postemergence bedstraw; type: in vivo, Galium aparine; conditions: Preemergence
How it was run: as §1

pigweed = assay: Test B pre/postemergence pigweed; type: in vivo, Amaranthus retroflexus
How it was run: as §1

sugar beet = assay: Test B pre/postemergence sugar beet; type: in vivo, Beta vulgaris
How it was run: as §1

giant foxtail = assay: Test B pre/postemergence giant foxtail; type: in vivo, Setaria faberii
How it was run: as §1

blackgrass = assay: Test B pre/postemergence blackgrass; type: in vivo, Alopecurus myosuroides
How it was run: as §1

wheat = assay: Test B pre/postemergence wheat; type: in vivo, Triticum aestivum
How it was run: as §1

[1] = Postemergence, Rate 250 g/ha, scale 0 to 10, 0 is no effect, 10 is complete control
[2] = Postemergence, Rate 500 g/ha, scale of 0 to 10 where 0 is no effect and 10 is complete control
[3] = Preemergence, Rate 62 g/ha, scale 0 to 10 (0 no effect, 10 complete control)
[4] = Preemergence, Rate 125 g/ha, scale of 0 to 10 where 0 is no effect and 10 is complete control
[5] = Preemergence, Rate 250 g/ha, scale 0 to 10, 0 is no effect, 10 is complete control
[6] = Preemergence, Rate 500 g/ha, scale 0 to 10, 0 is no effect, 10 is complete control
[7] = Rate 62 g/ha, Postemergence, scale of 0 to 10 where 0 is no effect and 10 is complete control
[8] = Rate 62 g/ha, flood test species, Pre-emergence, visual evaluation after twelve to sixteen days
[9] = Rate 125 g/ha, under heading Pre-emergence, flood test species, visual evaluation after twelve to sixteen days
[10] = Rate 250 g/ha, Pre-emergence, flood-test species, scale 0 to 10, 0 is no effect, 10 is complete control
[11] = Rate 500 g/ha, Pre-emergence, flood test species, scale 0 to 10 (0 no effect, 10 complete control)
[12] = Postemergence, Rate 125 g/ha, scale 0 to 10, 0 is no effect, 10 is complete control
[13] = Preemergence, Rate 250 g/ha, scale of 0 to 10 where 0 is no effect and 10 is complete control

Which “Plant response rating, Nutsedge” value (purple nutsedge; [1]) does the source give for `Cc1nc(Cl)sc1C(C)n1c(=O)on(C(=O)N(c2ccc(F)cc2)C(C)C)c1=O` (centres unmarked) [Compound 401] here?
Its value is 0.

And the “Nutsedge plant response rating” value (purple nutsedge; [2])?
The value was 0.

What about the “Plant response rating, Nutsedge” value (purple nutsedge; [3]) of the same compound?
Its value is 0.

What about the “Plant response rating, Nutsedge” value (purple nutsedge; [4]) of the same compound?
Its value is 0.

And the “Nutsedge plant response rating” value (purple nutsedge; [5])?
The value was 0.

What about the “Nutsedge plant response rating” value (purple nutsedge; [6]) of the same compound?
Its value is 0.

What about the “Nutsedge plant response rating” value (purple nutsedge; [7]) of the same compound?
Its value is 0.

And the “Plant response rating, Rice (0 to 10 scale, 0 is no effect, 10 is complete control)” value (rice; [8])?
Its value is 0.

And the “Rice plant response rating (0 to 10 scale, 0 is no effect, 10 is complete control)” value (rice; [9])?
Its value is 0.

And the “Rice plant response rating” value (rice; [10])?
Its value is 0.

What about the “Rice plant response rating” value (rice; [11]) of the same compound?
The value was 0.

And the “Wild oats plant response rating” value (wild oat; [2])?
The value was 0.

And the “Plant response rating, Wild oats” value (wild oat; [3])?
Its value is 0.

And the “Plant response rating, Wild oats” value (wild oat; [4])?
The value was 0.

And the “Wild oats plant response rating” value (wild oat; [5])?
The value was 0.

And the “Wild oats plant response rating” value (wild oat; [6])?
The value was 0.

What about the “Wild oats plant response rating” value (wild oat; [7]) of the same compound?
Its value is 0.

And the “Plant response rating, Cocklebur” value (cocklebur; [12])?
Its value is 0.

And the “Plant response rating, Cocklebur” value (cocklebur; [1])?
Its value is 0.

And the “Cocklebur plant response rating” value (cocklebur; [2])?
The value was 1.

What about the “Plant response rating, Cocklebur” value (cocklebur; [3]) of the same compound?
The value was 0.

And the “Plant response rating, Cocklebur” value (cocklebur; [4])?
The value was 0.

What about the “Cocklebur plant response rating” value (cocklebur; [5]) of the same compound?
Its value is 0.

And the “Cocklebur plant response rating” value (cocklebur; [6])?
Its value is 0.

And the “Cocklebur plant response rating” value (cocklebur; [7])?
The value was 0.

What about the “Plant response rating, Morningglory” value (morningglory; [1]) of the same compound?
The value was 6.

What about the “Morningglory plant response rating” value (morningglory; [2]) of the same compound?
Its value is 7.

What about the “Plant response rating, Morningglory” value (morningglory; [3]) of the same compound?
Its value is 0.

And the “Plant response rating, Morningglory” value (morningglory; [4])?
The value was 0.

And the “Morningglory plant response rating” value (morningglory; [5])?
The value was 0.

What about the “Morningglory plant response rating” value (morningglory; [6]) of the same compound?
Its value is 0.

And the “Morningglory plant response rating” value (morningglory; [7])?
Its value is 3.

What about the “Plant response rating, B. signalgrass” value (surinam grass; [12]) of the same compound?
The value was 0.

And the “Plant response rating, B. signalgrass” value (surinam grass; [1])?
Its value is 0.

And the “B. signalgrass plant response rating” value (surinam grass; [2])?
The value was 0.

And the “Plant response rating, B. signalgrass” value (surinam grass; [3])?
The value was 0.

What about the “Plant response rating, B. signalgrass” value (surinam grass; [4]) of the same compound?
Its value is 0.

And the “B. signalgrass plant response rating” value (surinam grass; [13])?
Its value is 0.

And the “B. signalgrass plant response rating” value (surinam grass; Preemergence, Rate 500 g/ha, scale of 0 to 10 where 0 is no effect and 10 is complete control)?
The value was 0.

And the “B. signalgrass plant response rating” value (surinam grass; [7])?
Its value is 0.

What about the “Plant response rating, Crabgrass” value (crabgrass; [12]) of the same compound?
The value was 0.

And the “Plant response rating, Crabgrass” value (crabgrass; [1])?
The value was 2.

And the “Crabgrass plant response rating” value (crabgrass; [2])?
The value was 3.

And the “Plant response rating, Crabgrass” value (crabgrass; [3])?
Its value is 0.

What about the “Plant response rating, Crabgrass” value (crabgrass; [4]) of the same compound?
Its value is 2.

What about the “Crabgrass plant response rating” value (crabgrass; [5]) of the same compound?
Its value is 8.

And the “Crabgrass plant response rating” value (crabgrass; [6])?
Its value is 10.

What about the “Crabgrass plant response rating” value (crabgrass; [7]) of the same compound?
Its value is 0.

What about the “Plant response rating, Barnyardgrass (0 to 10 scale, 0 is no effect, 10 is complete control)” value (bamyardgrass; [8]) of the same compound?
Its value is 0.

What about the “Barnyardgrass plant response rating (0 to 10 scale, 0 is no effect, 10 is complete control)” value (bamyardgrass; [9]) of the same compound?
Its value is 0.

And the “Barnyardgrass plant response rating” value (bamyardgrass; [10])?
Its value is 0.

What about the “Barnyardgrass plant response rating” value (bamyardgrass; [11]) of the same compound?
Its value is 0.

And the “Rape plant response rating” value (rape; [2])?
Its value is 7.

And the “Plant response rating, Rape” value (rape; [3])?
Its value is 0.

And the “Plant response rating, Rape” value (rape; [4])?
The value was 0.

What about the “Rape plant response rating” value (rape; [5]) of the same compound?
Its value is 0.

And the “Rape plant response rating” value (rape; [6])?
The value was 0.

And the “Rape plant response rating” value (rape; [7])?
Its value is 0.

And the “Plant response rating, Corn” value (corn; [12])?
Its value is 0.

And the “Plant response rating, Corn” value (corn; [1])?
Its value is 0.

What about the “Corn plant response rating” value (corn; [2]) of the same compound?
Its value is 0.

And the “Plant response rating, Corn” value (corn; [3])?
Its value is 0.

And the “Plant response rating, Corn” value (corn; [4])?
The value was 0.

What about the “Corn plant response rating” value (corn; [5]) of the same compound?
Its value is 0.

What about the “Corn plant response rating” value (corn; [6]) of the same compound?
The value was 0.

And the “Corn plant response rating” value (corn; [7])?
Its value is 0.

What about the “Plant response rating, Bedstraw” value (bedstraw; Rate 62 g/ha, scale 0 to 10 (0 no effect, 10 complete control)) of the same compound?
Its value is 0.

And the “Plant response rating, Bedstraw” value (bedstraw; Rate 125 g/ha, scale of 0 to 10 where 0 is no effect and 10 is complete control)?
The value was 0.

What about the “Plant response rating, Redroot pigweed” value (pigweed; [1]) of the same compound?
The value was 1.

And the “Redroot pigweed plant response rating” value (pigweed; [2])?
The value was 2.

And the “Plant response rating, Redroot pigweed” value (pigweed; [3])?
Its value is 0.

And the “Plant response rating, Redroot pigweed” value (pigweed; [4])?
The value was 0.

And the “Redroot pigweed plant response rating” value (pigweed; [5])?
Its value is 0.

What about the “Redroot pigweed plant response rating” value (pigweed; [6]) of the same compound?
The value was 0.

And the “Redroot pigweed plant response rating” value (pigweed; [7])?
Its value is 0.

What about the “Plant response rating, Sugarbeets” value (sugar beet; [1]) of the same compound?
The value was 0.

And the “Sugarbeets plant response rating” value (sugar beet; [2])?
Its value is 0.

What about the “Plant response rating, Sugarbeets” value (sugar beet; [3]) of the same compound?
Its value is 0.

And the “Plant response rating, Sugarbeets” value (sugar beet; [4])?
The value was 0.

And the “Sugarbeets plant response rating” value (sugar beet; [5])?
The value was 0.

And the “Sugarbeets plant response rating” value (sugar beet; [6])?
Its value is 0.

What about the “Sugarbeets plant response rating” value (sugar beet; [7]) of the same compound?
The value was 0.

What about the “Plant response rating, Giant foxtail” value (giant foxtail; [12]) of the same compound?
Its value is 0.

And the “Plant response rating, Giant foxtail” value (giant foxtail; [1])?
The value was 2.

What about the “Giant foxtail plant response rating” value (giant foxtail; [2]) of the same compound?
Its value is 6.

And the “Plant response rating, Giant foxtail” value (giant foxtail; [3])?
Its value is 0.

What about the “Plant response rating, Giant foxtail” value (giant foxtail; [4]) of the same compound?
Its value is 6.

What about the “Giant foxtail plant response rating” value (giant foxtail; [5]) of the same compound?
The value was 7.

And the “Giant foxtail plant response rating” value (giant foxtail; [6])?
The value was 8.

What about the “Giant foxtail plant response rating” value (giant foxtail; [7]) of the same compound?
The value was 0.

And the “Plant response rating, Blackgrass” value (blackgrass; [12])?
The value was 0.

What about the “Plant response rating, Blackgrass” value (blackgrass; [1]) of the same compound?
Its value is 0.

And the “Blackgrass plant response rating” value (blackgrass; [2])?
The value was 0.

And the “Plant response rating, Blackgrass” value (blackgrass; [3])?
Its value is 0.

And the “Plant response rating, Blackgrass” value (blackgrass; [4])?
The value was 0.

And the “Blackgrass plant response rating” value (blackgrass; [13])?
The value was 0.

And the “Blackgrass plant response rating” value (blackgrass; [6])?
The value was 2.

And the “Blackgrass plant response rating” value (blackgrass; [7])?
The value was 0.

What about the “Wheat plant response rating” value (wheat; [2]) of the same compound?
The value was 0.

And the “Plant response rating, Wheat” value (wheat; [3])?
Its value is 0.

What about the “Plant response rating, Wheat” value (wheat; [4]) of the same compound?
Its value is 0.

And the “Wheat plant response rating” value (wheat; [5])?
Its value is 0.

And the “Wheat plant response rating” value (wheat; [6])?
The value was 0.

And the “Wheat plant response rating” value (wheat; [7])?
Its value is 0.
